# Measurements as given in paper PMC10893631, “Receptor-based pharmacophore modeling, molecular docking, synthesis and biological evaluation of novel VEGFR-2, FGFR-1, and BRAF multi-kinase inhibitors” (BMC Chemistry, 2024).
# Tests used:
# Assay in all cases: NCI SRB growth inhibition (single dose 10 µM / five-dose)
# Format in all cases: cell-based, human
# UACC-257 = conditions: Homo sapiens; for inhibition at 10 µM: UACC-257 (Melanoma), read-out: GI%; for GI50: UACC-257, Melanoma, five-dose
# Procedure, shortened: (§1)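 SRB protein stain of fixed cells; compounds tested at one dose (10 µM) or five serial dilutions (10-fold or ½ log), diluted from DMSO stock. Cells plated 24 h before dosing, with a time-zero plate fixed in TCA. Percent growth derived from Tz, control and test absorbances; TGI taken where Ti = Tz.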
# COLO 205 = conditions: Homo sapiens; for GI50: COLO 205, Colon cancer, five-dose; for inhibition at 10 µM: COLO 205 (Colon cancer), read-out: GI%
# Procedure, shortened: as §1
# HS 578 T = conditions: Homo sapiens; for inhibition at 10 µM: HS 578 T (Breast cancer), read-out: GI%; for GI50: HS 578 T, Breast cancer, five-dose
# Procedure, shortened: as §1
# OVCAR-8 = conditions: Homo sapiens; for inhibition at 10 µM: OVCAR-8 (Ovarian cancer), read-out: GI%; for GI50: OVCAR-8, Ovarian cancer, five-dose
# Procedure, shortened: as §1
# RPMI-8226 = conditions: Homo sapiens; for inhibition at 10 µM: RPMI-8226 (Leukemia), read-out: GI%; for GI50: RPMI-8226, Leukemia, five-dose
# Procedure, shortened: as §1
# K-562 = conditions: Homo sapiens, K562; for inhibition at 10 µM: K-562 (Leukemia), read-out: GI%; for GI50: K-562, Leukemia, five-dose
# Procedure, shortened: as §1
# NCI-H23 = conditions: Homo sapiens; for inhibition at 10 µM: NCI-H23 (Non-small cell lung cancer), read-out: GI%; for GI50: NCI-H23, Non-small cell lung cancer, five-dose
# Procedure, shortened: as §1
# NCI-H460 = conditions: Homo sapiens; for inhibition at 10 µM: NCI-H460 (Non-small cell lung cancer), read-out: GI%; for GI50: NCI-H460, Non-small cell lung cancer, five-dose
# Procedure, shortened: as §1
# SW-620 = conditions: Homo sapiens; for inhibition at 10 µM: SW-620 (Colon cancer), read-out: GI%; for GI50: SW-620, Colon cancer, five-dose
# Procedure, shortened: as §1
# CCRF-CEM = conditions: Homo sapiens; for inhibition at 10 µM: CCRF-CEM (Leukemia), read-out: GI%; for GI50: CCRF-CEM, Leukemia, five-dose
# Procedure, shortened: as §1
# SK-MEL-28 = conditions: Homo sapiens; for inhibition at 10 µM: SK-MEL-28 (Melanoma), read-out: GI%; for GI50: SK-MEL-28, Melanoma, five-dose
# Procedure, shortened: as §1
# MALME-3 M = conditions: Homo sapiens; for inhibition at 10 µM: MALME-3 M (Melanoma), read-out: GI%; for GI50: MALME-3 M, Melanoma, five-dose
# Procedure, shortened: as §1
# MCF7 = conditions: Homo sapiens; for inhibition at 10 µM: MCF7 (Breast cancer), read-out: GI%; for GI50: MCF7, Breast cancer, five-dose
# Procedure, shortened: as §1
# HCC-2998 = conditions: Homo sapiens; for inhibition at 10 µM: HCC-2998 (Colon cancer), read-out: GI%; for GI50: HCC-2998, Colon cancer, five-dose
# Procedure, shortened: as §1
# OVCAR-5 = conditions: Homo sapiens; for inhibition at 10 µM: OVCAR-5 (Ovarian cancer), read-out: GI%; for GI50: OVCAR-5, Ovarian cancer, five-dose
# Procedure, shortened: as §1
# A549/ATCC = conditions: Homo sapiens; for inhibition at 10 µM: A549/ATCC (Non-small cell lung cancer), read-out: GI%; for GI50: A549/ATCC, Non-small cell lung cancer, five-dose
# Procedure, shortened: as §1
# IGROV1 = conditions: Homo sapiens, IGROV-1; for inhibition at 10 µM: IGROV1 (Ovarian cancer), read-out: GI%; for GI50: IGROV1, Ovarian cancer, five-dose
# Procedure, shortened: as §1
# OVCAR-3 = conditions: Homo sapiens; for inhibition at 10 µM: OVCAR-3 (Ovarian cancer), read-out: GI%; for GI50: OVCAR-3, Ovarian cancer, five-dose
# Procedure, shortened: as §1
# EKVX = conditions: Homo sapiens; for inhibition at 10 µM: EKVX (Non-small cell lung cancer), read-out: GI%; for GI50: EKVX, Non-small cell lung cancer, five-dose
# Procedure, shortened: as §1
# UACC-62 = conditions: Homo sapiens; for inhibition at 10 µM: UACC-62 (Melanoma), read-out: GI%; for GI50: UACC-62, Melanoma, five-dose
# Procedure, shortened: as §1
# PC-3 = conditions: Homo sapiens; for inhibition at 10 µM: PC-3 (Prostate cancer), read-out: GI%
# Procedure, shortened: as §1
# SK-MEL-2 = conditions: Homo sapiens; for inhibition at 10 µM: SK-MEL-2 (Melanoma), read-out: GI%; for GI50: SK-MEL-2, Melanoma, five-dose
# Procedure, shortened: as §1
# TK-10 = conditions: Homo sapiens; for inhibition at 10 µM: TK-10 (Renal cancer), read-out: GI%; for GI50: TK-10, Renal cancer, five-dose
# Procedure, shortened: as §1
# T-47D = conditions: Homo sapiens, T47D; for GI50: T-47D, Breast cancer, five-dose; for inhibition at 10 µM: T-47D (Breast cancer), read-out: GI%
# Procedure, shortened: as §1
# A498 = conditions: Homo sapiens; for inhibition at 10 µM: A498 (Renal cancer), read-out: GI%; for GI50: A498, Renal cancer, five-dose
# Procedure, shortened: as §1
# SF-295 = conditions: Homo sapiens; for inhibition at 10 µM: SF-295 (CNS cancer), read-out: GI%; for GI50: SF-295, CNS cancer, five-dose
# Procedure, shortened: as §1
smiles,measurement,setting,value
"O=C(NN=Cc1ccccc1O)c1ccc2[nH]c(-c3ccc(Cl)cc3)nc2c1 [8o, 2-(4-Chlorophenyl)-N'-(2-hydroxybenzylidene)-1H-benzo[d]imidazole-5-carbohydrazide]",inhibition at 10 µM,UACC-257,42.4%
same,GI50,UACC-257,7.35 µM
same,GI50,COLO 205,0.89 µM
same,inhibition at 10 µM,HS 578 T,> 100%
same,GI50,HS 578 T,0.26 µM
same,inhibition at 10 µM,OVCAR-8,> 100%
same,GI50,OVCAR-8,0.98 µM
same,inhibition at 10 µM,RPMI-8226,88.2%
same,GI50,RPMI-8226,> 38.8 µM
same,inhibition at 10 µM,K-562,85.5%
same,GI50,K-562,0.15 µM
same,inhibition at 10 µM,NCI-H23,> 100%
same,GI50,NCI-H23,0.31 µM
same,inhibition at 10 µM,NCI-H460,> 100%
same,GI50,NCI-H460,0.25 µM
same,inhibition at 10 µM,SW-620,> 100%
same,GI50,SW-620,0.33 µM
same,inhibition at 10 µM,CCRF-CEM,> 100%
same,GI50,CCRF-CEM,> 38.8 µM
same,inhibition at 10 µM,SK-MEL-28,78.2%
same,GI50,SK-MEL-28,1.85 µM
same,inhibition at 10 µM,MALME-3 M,> 100%
same,GI50,MALME-3 M,1.03 µM
same,inhibition at 10 µM,MCF7,93.7%
same,GI50,MCF7,0.16 µM
same,inhibition at 10 µM,HCC-2998,78%
same,GI50,HCC-2998,1.38 µM
same,inhibition at 10 µM,OVCAR-5,55.9%
same,GI50,OVCAR-5,2.12 µM
same,inhibition at 10 µM,A549/ATCC,87%
same,GI50,A549/ATCC,1.8 µM
same,inhibition at 10 µM,IGROV1,84.3%
same,GI50,IGROV1,0.95 µM
same,inhibition at 10 µM,OVCAR-3,> 100%
same,GI50,OVCAR-3,0.19 µM
same,inhibition at 10 µM,EKVX,67.2%
same,GI50,EKVX,9.31 µM
same,inhibition at 10 µM,UACC-62,95.3%
same,GI50,UACC-62,1.69 µM
same,inhibition at 10 µM,PC-3,78.5%
same,GI50,"PC-3; PC-3, Prostate cancer, five-dose",> 38.8 µM
same,inhibition at 10 µM,SK-MEL-2,> 100%
same,GI50,SK-MEL-2,4.6 µM
same,inhibition at 10 µM,TK-10,95%
same,GI50,TK-10,5.08 µM
same,GI50,T-47D,1.48 µM
same,inhibition at 10 µM,A498,53.9%
same,GI50,A498,8.1 µM
same,inhibition at 10 µM,SF-295,> 100%
same,GI50,SF-295,1.6 µM
"O=C(NN=Cc1cccc(O)c1)c1ccc2[nH]c(-c3ccc(Cl)cc3)nc2c1 [8p, 2-(4-Chlorophenyl)-N'-(3-hydroxybenzylidene)-1H-benzo[d]imidazole-5-carbohydrazide]",inhibition at 10 µM,UACC-257,< 5%
same,inhibition at 10 µM,COLO 205,34.6%
same,inhibition at 10 µM,HS 578 T,27.1%
same,inhibition at 10 µM,OVCAR-8,19%
same,inhibition at 10 µM,RPMI-8226,56.7%
same,inhibition at 10 µM,K-562,49.9%
same,inhibition at 10 µM,NCI-H23,56.6%
same,inhibition at 10 µM,NCI-H460,56.6%
same,inhibition at 10 µM,SW-620,6.31%
same,inhibition at 10 µM,CCRF-CEM,71.9%
same,inhibition at 10 µM,SK-MEL-28,16%
same,inhibition at 10 µM,MALME-3 M,58.9%
same,inhibition at 10 µM,MCF7,72.3%
same,inhibition at 10 µM,HCC-2998,15.9%
same,inhibition at 10 µM,OVCAR-5,< 5%
same,inhibition at 10 µM,A549/ATCC,7.53%
same,inhibition at 10 µM,IGROV1,5.71%
same,inhibition at 10 µM,OVCAR-3,< 5%
same,inhibition at 10 µM,EKVX,7.59%
same,inhibition at 10 µM,UACC-62,19.6%
same,inhibition at 10 µM,PC-3,48.8%
same,inhibition at 10 µM,SK-MEL-2,24%
same,inhibition at 10 µM,TK-10,< 5%
same,inhibition at 10 µM,T-47D,79.8%
same,inhibition at 10 µM,A498,10.2%
same,inhibition at 10 µM,SF-295,11.8%
"COc1cccc(C=NNC(=O)c2ccc3[nH]c(-c4ccc(Cl)cc4)nc3c2)c1 [8q, 2-(4-Chlorophenyl)-N'-(3-methoxybenzylidene)-1H-benzo[d]imidazole-5-carbohydrazide]",inhibition at 10 µM,UACC-257,> 100%
same,GI50,UACC-257,4.8 µM
same,inhibition at 10 µM,COLO 205,> 100%
same,GI50,COLO 205,4.02 µM
same,inhibition at 10 µM,HS 578 T,> 100%
same,GI50,HS 578 T,2.71 µM
same,inhibition at 10 µM,OVCAR-8,> 100%
same,GI50,OVCAR-8,2.69 µM
same,inhibition at 10 µM,RPMI-8226,> 100%
same,GI50,RPMI-8226,1.47 µM
same,inhibition at 10 µM,K-562,98.1%
same,GI50,K-562,3.14 µM
same,inhibition at 10 µM,NCI-H23,> 100%
same,GI50,NCI-H23,2.2 µM
same,inhibition at 10 µM,NCI-H460,> 100%
same,GI50,NCI-H460,3.34 µM
same,inhibition at 10 µM,SW-620,> 100%
same,GI50,SW-620,2.93 µM
same,inhibition at 10 µM,CCRF-CEM,47%
same,GI50,CCRF-CEM,1.95 µM
same,inhibition at 10 µM,SK-MEL-28,> 100%
same,GI50,SK-MEL-28,2.15 µM
same,inhibition at 10 µM,MALME-3 M,> 100%
same,GI50,MALME-3 M,1.54 µM
same,inhibition at 10 µM,MCF7,> 100%
same,GI50,MCF7,2.57 µM
same,inhibition at 10 µM,HCC-2998,79.6%
same,GI50,HCC-2998,4.42 µM
same,inhibition at 10 µM,OVCAR-5,> 100%
same,GI50,OVCAR-5,5.35 µM
same,inhibition at 10 µM,A549/ATCC,> 100%
same,GI50,A549/ATCC,3.22 µM
same,inhibition at 10 µM,IGROV1,> 100%
same,GI50,IGROV1,3.01 µM
same,inhibition at 10 µM,OVCAR-3,> 100%
same,GI50,OVCAR-3,3.24 µM
same,inhibition at 10 µM,EKVX,> 100%
same,GI50,EKVX,3.52 µM
same,inhibition at 10 µM,UACC-62,> 100%
same,GI50,UACC-62,4.92 µM
same,inhibition at 10 µM,PC-3,> 100%
same,inhibition at 10 µM,SK-MEL-2,> 100%
same,GI50,SK-MEL-2,3.07 µM
same,inhibition at 10 µM,TK-10,> 100%
same,GI50,TK-10,23.9 µM
same,inhibition at 10 µM,T-47D,> 100%
same,GI50,T-47D,1.95 µM
same,inhibition at 10 µM,A498,> 100%
same,GI50,A498,15.3 µM
same,inhibition at 10 µM,SF-295,> 100%
same,GI50,SF-295,2.17 µM
